Patent US5445944A, “Methods for determining peroxidately active substances” (Syntex (U.S.A.) Inc., priority 1994, dated 1995)

Columns and labels:
[1] = Suitability of benzidines as hydrogen donor in the peroxidase cleavage reaction
[2] = Trapping of / reaction with oxidized dicarboxidine in solution
[3] = target: T1, HRP (Armoracia rusticana, UniProt P00433); experiment: Release of fluorophore, pH jump method (HRP/H2O2 cleavage at pH 5.0, fluorescence read at pH 8.0); type: biochemical, horseradish; conditions: pH jump: reaction in citrate buffer pH 5.0 with H2O2 and 0.1 mL HRP (10 ng/mL); aliquot read in phosphate buffer pH 8.0; experiment repeated (two lines)
T1 sequence (P00433 31-338 limits assumed): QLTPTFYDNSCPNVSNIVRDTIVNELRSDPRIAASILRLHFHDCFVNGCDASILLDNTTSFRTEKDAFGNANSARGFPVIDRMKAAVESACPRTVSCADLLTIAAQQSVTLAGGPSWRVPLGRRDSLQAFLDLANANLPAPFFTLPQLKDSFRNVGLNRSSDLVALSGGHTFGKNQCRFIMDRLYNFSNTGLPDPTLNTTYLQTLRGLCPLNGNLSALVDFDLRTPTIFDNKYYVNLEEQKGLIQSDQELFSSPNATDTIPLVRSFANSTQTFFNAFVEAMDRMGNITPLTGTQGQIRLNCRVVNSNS
Description: 0.01 mL of dicarboxidine 11 (or XV), 0.1 mL of 49 and 0.04 mL of H2 O2 were added to 0.75 mL (0.76 mL) citrate buffer (pH 5.0, 0.1M); 0.1 mL of HRP (10 ng/mL) was added to start the reaction. 0.05 mL of this solution was taken every three minutes and added to 0.95 mL of phosphate buffer (pH 8.0, 1.0M) and spectra recorded. This experiment was repeated.
Results: Fluorescence after 3 minutes--background fluorescence.

[4] = target: T1, HRP; experiment: Release of fluorophore at pH 7.0 (HRP/H2O2); type: biochemical, horseradish; conditions: phosphate buffer 0.1M pH 7.0, H2O2, 0.1 mL HRP (100 ng/mL); experiment repeated (two lines)
Description: 0.01 mL of dicarboxidine 11 (or XV), 0.1 mL of 49 and 0.04 mL of H2 O2 were added to 0.75 mL (0.76 mL) of phosphate buffer (0.1M, pH 7.0). 0.1 mL of HRP (100 ng/mL) was added to start the reaction and the spectra recorded. This experiment was repeated.

| SMILES | Function as benzidine hydrogen donor [1] | Effect on / reaction with oxidized dicarboxidine [2] | further results |
| --- | --- | --- | --- |
| CN(C)c1ccc(-c2ccc(N(C)C)cc2)cc1 [N,N,N',N'-tetramethylbenzidine] | do not react at a rate acceptable for assays | – | – |
| Cc1cc(-c2ccc(N)c(C)c2)ccc1N [3,3'-dimethylbenzidine] | function in the present invention | – | – |
| Nc1ccc(-c2ccc(N)cc2)cc1 [benzidine] | function in the present invention | – | – |
| COc1ccc(O)cc1C(=O)O [2-methoxy-5-hydroxybenzoic acid] | – | react with oxidized dicarboxidine | – |
| O=C(NCCS(=O)(=O)O)c1cc2ccc(Oc3ccc(O)cc3)cc2oc1=O [Compound 49] | – | – | Fluorescence after 3 minutes--background fluorescence [3]: 0.50 F.U.; Fluorescence [4]: 40 F.U. |
| COc1ccc(O)c(C(=O)O)c1 [2-hydroxy-5-methoxy benzoic acid] | – | has no effect on oxidized dicarboxidine | – |
| O=C(O)c1cc(O)ccc1O [Gentisic acid, gentisic acid] | – | react with oxidized dicarboxidine | – |
| Cc1cc(-c2cc(C)c(N)c(C)c2)cc(C)c1N [3,3',5,5'-tetramethylbenzidine] | do not react at a rate acceptable for assays | – | – |
| COc1ccccc1OC [ortho-methoxy anisole] | – | has no effect on oxidized dicarboxidine | – |
| COc1ccc(OC)cc1 [Para-methoxy anisole] | – | has no effect on oxidized dicarboxidine | – |
